Data published in US11802120B2, “Fused cyclic urea derivatives as CRHR2 antagonist” (RaQualia Pharma Inc., priority 2018, dated 2023).

Target: T1, human CRHR2-alpha (Homo sapiens, UniProt Q13324)
T1 sequence (Q13324 1-411): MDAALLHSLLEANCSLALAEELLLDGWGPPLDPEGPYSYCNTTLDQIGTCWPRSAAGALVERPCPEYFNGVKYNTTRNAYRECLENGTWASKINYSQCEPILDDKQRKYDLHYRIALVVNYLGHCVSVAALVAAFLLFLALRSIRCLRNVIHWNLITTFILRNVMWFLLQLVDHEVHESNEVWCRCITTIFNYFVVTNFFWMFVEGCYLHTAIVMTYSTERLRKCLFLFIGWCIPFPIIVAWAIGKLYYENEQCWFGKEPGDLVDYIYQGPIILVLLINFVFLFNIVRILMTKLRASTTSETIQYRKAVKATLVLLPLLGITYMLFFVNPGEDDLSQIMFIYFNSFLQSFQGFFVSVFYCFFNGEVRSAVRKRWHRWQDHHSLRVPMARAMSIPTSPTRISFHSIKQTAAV
Assay: cAMP functional assay for human CRHR2 (LANCE Ultra cAMP, TR-FRET)
Type: cell-based
Conditions: CHO-K1 cells expressing human CRHR2-alpha, agonist human urocortin2 at EC80, cAMP; read-out: IC50 against CRHR2
Method in brief: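 Antagonism measured in CHO-K1 cells stably expressing the receptor, serum-starved 7 h then cryopreserved. Thawed cells in HBSS buffer with 0.1% BSA, 0.5 mM IBMX, 5 mM Hepes pH 7.4 were preincubated with compound 30 min at 25° C, then stimulated 30 min with EC80 agonist: urocortin2 for CRHR2, CRF for CRHR1.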

SMILES | IC50 [nM]
Cc1ncc(Cl)cc1C(=O)N[C@H]1CC[C@H](Cn2c(=O)n(-c3ccc4ncccc4c3)c3ccccc32)CC1 [Example 344, 5-chloro-2-methyl-N-((1r,4r)-4-((2-oxo-3-(quinolin-6-yl)-2,3-dihydro-1H-benzo[d]imidazol-1-yl)methyl)cyclo-hexyl)nicotinamide] | < 300
Cc1ncc(Cl)cc1C(=O)N[C@H]1CC[C@H](Cn2c(=O)n(-c3cccc4ncccc34)c3ccccc32)CC1 [Example 345, 5-chloro-2-methyl-N-((1r,4r)-4-((2-oxo-3-(quinolin-5-yl)-2,3-dihydro-1H-benzo[d]imidazol-1-yl)methyl)cyclo-hexyl)nicotinamide] | < 300
Cc1ncc(Cl)cc1C(=O)N[C@H]1CC[C@H](Cn2c(=O)n(-c3cnc4ccccc4c3)c3ccccc32)CC1 [Example 346, 5-chloro-2-methyl-N-((1r,4r)-4-((2-oxo-3-(quinolin-3-yl)-2,3-dihydro-1H-benzo[d]imidazol-1-yl)methyl)cyclo-hexyl)nicotinamide] | < 300
Cc1ncc(Cl)cc1C(=O)N[C@H]1CC[C@H](Cn2c(=O)n(-c3cccc4c3cnn4C)c3ccccc32)CC1 [Example 347, 5-chloro-2-methyl-N-((1r,4r)-4-((3-(1-methyl-1H-indazol-4-yl)-2-oxo-2,3-dihydro-1H-benzo[d]imidazol-1-yl)methyl)cyclohexyl)nicotinamide] | < 300
Cc1ncc(Cl)cc1C(=O)N[C@H]1CC[C@H](Cn2c(=O)n(-c3ccc4[nH]nc(-c5ccccc5)c4c3)c3ccccc32)CC1 [Example 348, 5-chloro-2-methyl-N-((1r,4r)-4-((2-oxo-3-(3-phenyl-1H-indazol-5-yl)-2,3-dihydro-1H-benzo[d]imidazol-1-yl)methyl)cyclohexyl)nicotinamide] | < 300
CNC(=O)c1ccc(-n2c(=O)n(C[C@H]3CC[C@H](NC(=O)c4cc(Cl)cnc4CC(F)F)CC3)c3ccccc32)cn1 [Example 349, 5-(3-(((1r,4r)-4-(5-chloro-2-(2,2-difluoroethyl)nicotina-mido)cyclohexyl)methyl)-2-oxo-2,3-dihydro-1H-benzo[d]imidazol-1-yl)-N-methyl-picolinamide] | < 300
Cc1ncc(Cl)cc1C(=O)N[C@H]1CC[C@H](Cn2c(=O)n(-c3cccc4nccn34)c3ccccc32)CC1 [Example 350, 5-chloro-N-((1r,4r)-4-((3-(imidazo[1,2-a]pyridin-5-yl)-2-oxo-2,3-dihydro-1H-benzo [d]imidazol-1-yl)methyl)cyclohexyl)-2-methylnico-tinamide] | < 300
O=C(N[C@H]1CC[C@H](Cn2c(=O)n(-c3ccc4ncccc4c3)c3ccccc32)CC1)c1cc(Cl)cnc1C(F)(F)F [Example 351, 5-chloro-N-((1r,4r)-4-((2-oxo-3-(quinolin-6-yl)-2,3-dihydro-1H-benzo[d]imidazol-1-yl)methyl)cyclo-hexyl)-2-(trifluoromethyl) nicotinamide] | < 300
O=C(N[C@H]1CC[C@H](Cn2c(=O)n(-c3cnc4ccccc4c3)c3ccccc32)CC1)c1cc(Cl)cnc1C(F)(F)F [Example 352, 5-chloro-N-((1r,4r)-4-((2-oxo-3-(quinolin-3-yl)-2,3-dihydro-1H-benzo[d]imidazol-1-yl)methyl)cyclo-hexyl)-2-(trifluoromethyl) nicotinamide] | < 300
O=C(N[C@H]1CC[C@H](Cn2c(=O)n(-c3cccc4cccnc34)c3ccccc32)CC1)c1cc(Cl)cnc1C(F)(F)F [Example 353, 5-chloro-N-((1r,4r)-4-((2-oxo-3-(quinolin-8-yl)-2,3-dihydro-1H-benzo[d]imidazol-1-yl)methyl)cyclo-hexyl)-2-(trifluoromethyl) nicotinamide] | < 300
O=C(N[C@H]1CC[C@H](Cn2c(=O)n(-c3cncc4ccccc34)c3ccccc32)CC1)c1cc(Cl)cnc1C(F)(F)F [Example 354, 5-chloro-N-((1r,4r)-4-((3-(isoquinolin-4-yl)-2-oxo-2,3-dihydro-1H-benzo[d]imidazol-1-yl)methyl)cyclo-hexyl)-2-(trifluoromethyl) nicotinamide] | < 300
